Values of other authors, collected in paper PMC4627231, “Targeting the sugar metabolism of tumors with a first-in-class 6-phosphofructo-2-kinase (PFKFB4) inhibitor” (Oncotarget, 2015).

System: breast cancer patients
Set-up: method as in PMID 25524798
Settings: cited from earlier work

CC(=O)c1c(C)c2cnc(Nc3ccc(N4CCNCC4)cn3)nc2n(C2CCCC2)c1=O [palbociclib]
progression-free survival: double | toxicity: without causing excessive toxicity
